Data: patent EP1131297B1, “CERTAIN SUBSTITUTED CAPROLACTAMS, PHARMACEUTICAL COMPOSITIONS CONTAINING THEM AND THEIR USE IN TREATING TUMORS” (Novartis AG, priority 1998, dated 2000)
Converted amounts (≈) assume the structure as drawn.

How the values were obtained:
physchem = settings: water
[1] = tested on: MDA-MB-435 tumor xenografts; experiment: Human tumor xenograft growth inhibition in athymic nude mouse model; format: in vivo, athymic (nu/nu) mice; settings: 3X/week for 3 weeks
Protocol: The histologic tumor type employed was MDA-MB-435 breast carcinoma.
Positive controls are carried out with doxorubicin administered 3 times per week i.v.
Anti-tumor activity was expressed as %T/C (Δ MTV of treated group ö Δ MTV of control group X100).

[2] = tested on: MDA-MB-435 breast carcinoma; experiment: Anchorage Dependent Growth Monolayer Assay (ADGMA), MTS readout; format: cell-based; settings: Homo sapiens, MDA-MB-435, 72 h, average ± S.D., 3-day exposure, A490
From the text: As indicated above, all of the compounds of formula I, and their corresponding pharmaceutically acceptable acid addition salts, are anti-tumor agents and are, therefore, useful in inhibiting the growth of various lymphomas, sarcomas, carcinomas, myelomas, and leukemia cell lines. […] This assay was adapted from the 60 cell line assay used by the National Cancer Institute (NCI) with the following modifications: 1) a single cell line representative for the important tumor type, viz., MDA-MB-435 breast carcinoma was utilized; 2) a tetrazolium derivative, viz., MTS, was utilized to determine cell density.
The ADGMA compares the number of viable cells following a 3-day exposure to a test compound relative to a number of cells present at the time the test compound was added. […] The absorbance at 490 nm (A490) of the formazan derivative is proportional to the number of viable cells. The IC50 for a test compound is the concentration of compound required to reduce the final cell number to 50% of the final control cell number. If cell proliferation is inhibited, the assay further defines compounds as cytostatic (cell number after 3-day compound incubation >cell number at time of compound addition) or cytotoxic (cell number after 3-day compound incubation <cell number at time of compound addition).
The MDA-MB-435 breast carcinoma line was obtained from the American Type Culture Collection (ATCC) and used between passages 4-20 following thawing. MDA-MB-435 breast carcinoma was maintained and plated in DME/F12 medium containing 10% fetal bovine serum, 15 mM HEPES (pH=7.4), penicillin 100 units/mL, and streptomycin 100 µg/mL.
Cell lines are trypsinized and counted using a Coulter counter to determine plating densities. Cells are then plated in their respective maintenance media (100 µL/well) in 96 well plates at the following densities: MDA-MB-435, 3,000 cells/well. The number of cells plates as determined in preliminary experiments, results in cell densities of 75-90% of confluency by 4 days after plating. Initial cell densities, assayed one day after plating, are roughly 0.15-0.20 absorbance units greater than the media blank. Ninety-six well plates are seeded on day 0 and the test compounds are added on day 1. A control plate is created for each cell line that receives media only in row A and cells in row B. One day following plating, test compounds are added (in a final volume of 100 µL) to the test plates. Control plates receive 10 µL MTS mixture (prepared fresh on day of addition to cell plates at a ratio of 10 µL of a 0.92 mg/mL solution of PMS to a 190 µL of a 2 mg/mL solution of MTS) and 100 µL media. A490 of control plates is read 4h after MTS addition to determine initial cell density values for each cell line. Three days after addition of test compound, 10 µL/well of MTS mixture is added to the test plates and A490 is read 4h later. A490 values for wells containing cells are corrected for media absorbance, then normalized to initial density readings to determine percent net growth. IC50 values are determined from graphs of percent net growth as a function of compound concentration. Percent net growth is calculated as (Cell + Drug A490 - Initial A490/Cell + Drug Vehicle A490 - Initial A490).

[3] = Mus musculus, MDA-MB-435, iv, 504 h, 10 µmol/kg i.v., * = statistically significant (p=<0.05), read-out: %T/C
[4] = Mus musculus, MDA-MB-435, iv, 504 h, 33 µmol/kg i.v., * = statistically significant (p=<0.05), read-out: %T/C

For CO[C@@H](C(=O)N[C@H]1CC[C@@H](OC(=O)CCc2ccccc2)CNC1=O)[C@H](O)[C@@H](O)[C@H](O)/C=C/C(C)(C)C [Ex. 4, (2R, 3R, 4S, 5R, 6E)-3,4,5-trihydroxy-2-methoxy-8,8-dimethyl-N-[(3S, 6R)-hexahydro-2-oxo-6-(1-oxo-3-phenylpropoxy)-2H-azepin-3-yl]non-6-enamide], the solubility (physchem) was 800 µg/mL (≈ 1.54 mM), the Dead/Total ([1]; 10 µmol/kg i.v.) was 0/8 and the “Δ MTV” value ([1]; 10 µmol/kg i.v.) was 93 mm^3. For the same compound, the Dead/Total ([1]; 33 µmol/kg i.v.) was 0/8, the “Δ MTV” value ([1]; 33 µmol/kg i.v.) was 21 mm^3 and the Dead/Total ([1]; 100 µmol/kg i.v.) was 0/8. The “Δ MTV” value ([1]; 100 µmol/kg i.v.) was -23 mm^3, the response vs control in vivo at 10 µmol/kg [1, 3] was 53% and the response vs control in vivo at 33 µmol/kg [1, 4] was 12%. The response vs control in vivo at 100 µmol/kg ([1]; Mus musculus, MDA-MB-435, iv, 504 h, 100 µmol/kg i.v., * = statistically significant (p=<0.05), read-out: %T/C) was -13% and the IC50 [2] was 10 ± 10 nM.

For CO[C@@H](C(=O)N[C@H]1CC[C@@H](OC(=O)C2CCCC2)CNC1=O)[C@H](O)[C@@H](O)[C@H](O)/C=C/C(C)(C)C [Ex. 2, (2R, 3R, 4S, 5R, 6E)-3,4,5-trihydroxy-2-methoxy-8,8-dimethyl-N-[(3S, 6R)-hexahydro-2-oxo-6-(cyclopentylcarbonyl)oxy-2H-azepin-3-yl]non-6-enamide], the solubility (Water solubility) was 18 mg/mL (≈ 37.1 mM), the Dead/Total ([1]; 10 µmol/kg i.v.) was 0/8 and the “Δ MTV” value ([1]; 10 µmol/kg i.v.) was 94 mm^3. The Dead/Total ([1]; 33 µmol/kg i.v.) was 0/8, the “Δ MTV” value ([1]; 33 µmol/kg i.v.) was 19 mm^3 and the response vs control in vivo at 10 µmol/kg [1, 3] was 67%. It also gave a response vs control in vivo at 33 µmol/kg [1, 4] of 13% and an IC50 [2] of 115 ± 40 nM.
